pIC50: −log10 of the molar value. Blank lines part the entries; values can stand above or below the compound they belong to.
Tests used:
[1] = test system: MIA PaCa-2 cells; test: MIA PaCa2 cell-based assay (1,536-well high-content imaging ALDEFLUOR assay); design: species or system human; settings: Homo sapiens, 0.5 h, ALDEFLUOR BAAA substrate 500 nM, 30 minutes
Method in brief: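 MIA PaCa-2 cells (1,000/well), plated overnight, given BAAA substrate (500 nM) plus Hoechst 33342 (0.5 nM), then compound (16-point, 1.4 nM–47.8 μM final; 0.5% DMSO). After 30 min at 37° C, ALDH activity imaged by high-content microscopy as BAA-retaining (FITC) cells versus Hoechst-stained nuclei.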

[2] = biological target: T1, ALDH1A1 enzyme (Homo sapiens, UniProt P00352); test: ALDH1A1 enzymatic assay (in vitro); format: biochemical; settings: ALDH1A1 enzyme 20 nM, NAD+ 1 mM, propionaldehyde 80 μM; read-out: ALDH1A1 IC50
T1 sequence (P00352 1-501): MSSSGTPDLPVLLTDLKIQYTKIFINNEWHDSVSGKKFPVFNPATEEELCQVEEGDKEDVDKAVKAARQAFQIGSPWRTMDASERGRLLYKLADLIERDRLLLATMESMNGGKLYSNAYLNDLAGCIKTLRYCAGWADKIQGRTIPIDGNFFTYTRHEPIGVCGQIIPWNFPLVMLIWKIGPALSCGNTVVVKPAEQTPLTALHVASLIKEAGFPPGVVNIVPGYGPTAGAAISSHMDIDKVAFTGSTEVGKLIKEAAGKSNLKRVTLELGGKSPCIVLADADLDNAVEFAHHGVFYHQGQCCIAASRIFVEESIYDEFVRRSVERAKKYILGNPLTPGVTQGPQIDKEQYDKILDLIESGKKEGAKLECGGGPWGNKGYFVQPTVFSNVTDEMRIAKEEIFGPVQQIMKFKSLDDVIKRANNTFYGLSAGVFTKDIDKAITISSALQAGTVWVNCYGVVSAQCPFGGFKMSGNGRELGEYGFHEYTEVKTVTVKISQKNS
Experimental: Example 358. ALDH1A1 Enzymatic Assay (In Vitro Assay)
3 μL of ALDH1A1 enzyme (final concentration 20 nM) or assay buffer (100 mM HEPES pH 7.5 with 0.01% Tween 20) were dispensed into a 1,536-well solid-bottom black plate (Greiner Bio One, Monroe, N.C.) followed by pin-tool transfer (23 nL) of candidate inhibitors (final concentration range 968 pM to 57.2 μM) and control (Bay 11-7085, final concentration range 1.31 nM to 2.86 μM). Samples were incubated (RT, protected from light) for 15 minutes followed by a 1 μL substrate addition of NAD^+ and Propionaldehyde (final concentrations of 1 mM and 80 μM, respectively). Plates were centrifuged at 1,000 rpm for 15 seconds, then read in kinetic mode on a ViewLux High-throughput CCD imager (Perkin-Elmer) equipped with standard UV fluorescence optics (340 nm excitation, 450 nm emission) for 10 minutes. The change in fluorescence intensity over the 10-minute reaction period was normalized against no-inhibitor and no-enzyme controls and the resulting percent inhibition data were fitted for biological activity.

Compound: CNC(=O)C1CCN(C(=O)c2cnc3ccc(F)cc3c2N2CCC(C#N)(c3ccccc3)CC2)CC1 [Cpd. 327, 1-(4-(4-cyano-4-phenylpiperidin-1-yl)-6-fluoroquinoline-3-carbonyl)-N-methylpiperidine-4-carboxamide]
pIC50 [1]: > 6.30
pIC50 [2]: > 6.30

Compound: N#CC1(c2ccccc2)CCN(c2c(C(=O)N3CC4(C3)CS(=O)(=O)C4)cnc3ccc(F)cc23)CC1 [Cpd. 328, 1-(3-(2,2-dioxido-2-thia-6-azaspiro[3.3]heptane-6-carbonyl)-6-fluoroquinolin-4-yl)-4-phenylpiperidine-4-carbonitrile]
pIC50 [1]: > 6.30
pIC50 [2]: > 6.30

Compound: N#CC1(c2ccccc2)CCN(c2c(C(=O)N3CC4(CC(O)C4)C3)cnc3ccc(F)cc23)CC1 [Cpd. 329, 1-(6-fluoro-3-(6-hydroxy-2-azaspiro[3.3]heptane-2-carbonyl)quinolin-4-yl)-4-phenylpiperidine-4-carbonitrile]
pIC50 [1]: > 6.30
pIC50 [2]: > 6.30

Compound: N#CC1(c2ccccc2)CCN(c2c(C(=O)N3CCC(O)CC3)cnc3ccc(F)cc23)CC1 [Cpd. 331, 1-(6-fluoro-3-(4-hydroxypiperidine-1-carbonyl)quinolin-4-yl)-4-phenylpiperidine-4-carbonitrile]
pIC50 [1]: 6.00 to 6.30
pIC50 [2]: > 6.30

Compound: N#CC1(c2ccc(-c3c(C(=O)N4CC5(C4)CS(=O)(=O)C5)cnc4ccc(F)cc34)cc2)CC1 [Cpd. 332, 1-(4-(3-(2,2-dioxido-2-thia-6-azaspiro[3.3]heptane-6-carbonyl)-6-fluoroquinolin-4-yl)phenyl)cyclopropane-1-carbonitrile]
pIC50 [1]: 5.00 to 6.00
pIC50 [2]: > 6.30

Compound: N#CC1(c2ccc(-c3c(C(=O)N4CC5(CC(O)C5)C4)cnc4ccc(F)cc34)cc2)CC1 [Cpd. 335, 1-(4-(6-fluoro-3-(6-hydroxy-2-azaspiro[3.3]heptane-2-carbonyl)quinolin-4-yl)phenyl)cyclopropane-1-carbonitrile]
pIC50 [1]: 5.00 to 6.00
pIC50 [2]: > 6.30

Compound: N#CC1(c2ccc(-c3c(C(=O)N4CCC(O)CC4)cnc4ccc(F)cc34)cc2)CC1 [Cpd. 337, 1-(4-(6-fluoro-3-(4-hydroxypiperidine-1-carbonyl)quinolin-4-yl)phenyl)cyclopropane-1-carbonitrile]
pIC50 [1]: 5.00 to 6.00
pIC50 [2]: > 6.30

Compound: CN(C)C(=O)Cn1cc(NC(=O)c2cnc3ccc(F)cc3c2N2CCC(C#N)(c3ccccc3)CC2)cn1 [Cpd. 339, 4-(4-cyano-4-phenylpiperidin-1-yl)-N-(1-(2-(dimethylamino)-2-oxoethyl)-1H-pyrazol-4-yl)-6-fluoroquinoline-3-carboxamide]
pIC50 [1]: > 6.30
pIC50 [2]: > 6.30

Compound: N#CC1(O)CCN(C(=O)c2cnc3ccc(F)cc3c2-c2ccc(C3(C#N)CC3)cc2)CC1 [Cpd. 340, 1-(4-(4-(1-cyanocyclopropyl)phenyl)-6-fluoroquinoline-3-carbonyl)-4-hydroxypiperidine-4-carbonitrile]
pIC50 [1]: 5.00 to 6.00
pIC50 [2]: > 6.30

Compound: N#CC1(O)CCN(C(=O)c2cnc3ccc(F)cc3c2N2CCC(C#N)(c3ccccc3)CC2)CC1 [Cpd. 341, 1-(3-(4-cyano-4-hydroxypiperidine-1-carbonyl)-6-fluoroquinolin-4-yl)-4-phenylpiperidine-4-carbonitrile]
pIC50 [1]: 6.00 to 6.30
pIC50 [2]: > 6.30

Compound: N#CC1(c2ccccc2)CCN(c2c(C(=O)Nc3cnn(CCO)c3)cnc3ccc(F)cc23)CC1 [Cpd. 345, 4-(4-cyano-4-phenylpiperidin-1-yl)-6-fluoro-N-(1-(2-hydroxyethyl)-1H-pyrazol-4-yl)quinoline-3-carboxamide]
pIC50 [1]: > 6.30
pIC50 [2]: > 6.30

Compound: N#CC1(c2ccccc2)CCN(c2c(C(=O)N3CCC(O)(C4CC4)CC3)cnc3ccc(F)cc23)CC1 [Cpd. 348, 1-(3-(4-cyclopropyl-4-hydroxypiperidine-1-carbonyl)-6-fluoroquinolin-4-yl)-4-phenylpiperidine-4-carbonitrile]
pIC50 [1]: > 6.30
pIC50 [2]: > 6.30

Compound: CC1(O)CCN(C(=O)c2cnc3ccc(F)cc3c2N2CCC(C#N)(c3ccccc3)CC2)CC1 [Cpd. 349, 1-(6-fluoro-3-(4-hydroxy-4-methylpiperidine-1-carbonyl)quinolin-4-yl)-4-phenylpiperidine-4-carbonitrile]
pIC50 [1]: > 6.30
pIC50 [2]: > 6.30

Compound: CC1(O)CCN(C(=O)c2cnc3ccc(F)cc3c2-c2ccc(C3(C#N)CC3)cc2)CC1 [Cpd. 350, 1-(4-(6-fluoro-3-(4-hydroxy-4-methylpiperidine-1-carbonyl)quinolin-4-yl)phenyl)cyclopropane-1-carbonitrile]
pIC50 [1]: 5.00 to 6.00
pIC50 [2]: > 6.30

Compound: N#CC1(c2ccccc2)CCN(c2c(C(=O)N3CCC(O)(CO)CC3)cnc3ccc(F)cc23)CC1 [Cpd. 351, 1-(6-fluoro-3-(4-hydroxy-4-(hydroxymethyl)piperidine-1-carbonyl)quinolin-4-yl)-4-phenylpiperidine-4-carbonitrile]
pIC50 [1]: > 6.30
pIC50 [2]: > 6.30

Compound: N#CC1(c2ccc(-c3c(C(=O)N4CCC(O)(C5CC5)CC4)cnc4ccc(F)cc34)cc2)CC1 [Cpd. 353, 1-(4-(3-(4-cyclopropyl-4-hydroxypiperidine-1-carbonyl)-6-fluoroquinolin-4-yl)phenyl)cyclopropane-1-carbonitrile]
pIC50 [1]: 5.00 to 6.00
pIC50 [2]: > 6.30

The next lines start with the values.

pIC50 [1]: > 6.30
pIC50 [2]: > 6.30
Compound: CNC(=O)C1CCN(C(=O)c2cnc3ccc(F)cc3c2-c2ccc(C3(C#N)CC3)cc2)CC1 [Cpd. 333, 1-(4-(4-(1-cyanocyclopropyl)phenyl)-6-fluoroquinoline-3-carbonyl)-N-methylpiperidine-4-carboxamide]

pIC50 [1]: < 5.00
pIC50 [2]: 5.00 to 6.00
Compound: N#CC1(c2ccc(-c3c(C(=O)N4CC(O)C4)cnc4ccc(F)cc34)cc2)CC1 [Cpd. 334, 1-(4-(6-fluoro-3-(3-hydroxyazetidine-1-carbonyl)quinolin-4-yl)phenyl)cyclopropane-1-carbonitrile]

pIC50 [1]: 6.00 to 6.30
pIC50 [2]: > 6.30
Compound: N#CC1(c2ccc(-c3c(C(=O)N[C@H]4C[C@H](O)C4)cnc4ccc(F)cc34)cc2)CC1 [Cpd. 336, 4-(4-(1-cyanocyclopropyl)phenyl)-6-fluoro-N-((1R,3R)-3-hydroxycyclobutyl)quinoline-3-carboxamide]

pIC50 [1]: > 6.30
pIC50 [2]: > 6.30
Compound: N#CC1(c2ccc(-c3c(C(=O)N[C@H]4CC[C@H](O)CC4)cnc4ccc(F)cc34)cc2)CC1 [Cpd. 338, 4-(4-(1-cyanocyclopropyl)phenyl)-6-fluoro-N-((1R,4R)-4-hydroxycyclohexyl)quinoline-3-carboxamide]

pIC50 [1]: 6.00 to 6.30
pIC50 [2]: > 6.30
Compound: N#CC1(c2ccc(-c3c(C(=O)Nc4cnn(CC(N)=O)c4)cnc4ccc(F)cc34)cc2)CC1 [Cpd. 342, N-(1-(2-amino-2-oxoethyl)-1H-pyrazol-4-yl)-4-(4-(1-cyanocyclopropyl)phenyl)-6-fluoroquinoline-3-carboxamide]

pIC50 [1]: > 6.30
pIC50 [2]: > 6.30
Compound: N#CC1(c2ccc(-c3c(C(=O)Nc4cnn(CCO)c4)cnc4ccc(F)cc34)cc2)CC1 [Cpd. 343, 4-(4-(1-cyanocyclopropyl)phenyl)-6-fluoro-N-(1-(2-hydroxyethyl)-1H-pyrazol-4-yl)quinoline-3-carboxamide]

pIC50 [1]: 5.00 to 6.00
pIC50 [2]: > 6.30
Compound: N#CC1(c2ccc(-c3c(C(=O)Nc4cnn(CC(=O)NC5CC5)c4)cnc4ccc(F)cc34)cc2)CC1 [Cpd. 344, 4-(4-(1-cyanocyclopropyl)phenyl)-N-(1-(2-(cyclopropylamino)-2-oxoethyl)-1H-pyrazol-4-yl)-6-fluoroquinoline-3-carboxamide]

pIC50 [1]: < 5.00
pIC50 [2]: 5.00 to 6.00
Compound: CN(C)C(=O)Cn1cc(NC(=O)c2cnc3ccc(F)cc3c2-c2ccc(C3(C#N)CC3)cc2)cn1 [Cpd. 346, 4-(4-(1-cyanocyclopropyl)phenyl)-N-(1-(2-(dimethylamino)-2-oxoethyl)-1H-pyrazol-4-yl)-6-fluoroquinoline-3-carboxamide]

pIC50 [1]: > 6.30
pIC50 [2]: > 6.30
Compound: N#CC1(c2ccccc2)CCN(c2c(C(=O)Nc3cnn(CC(=O)NC4CC4)c3)cnc3ccc(F)cc23)CC1 [Cpd. 347, 4-(4-cyano-4-phenylpiperidin-1-yl)-N-(1-(2-(cyclopropylamino)-2-oxoethyl)-1H-pyrazol-4-yl)-6-fluoroquinoline-3-carboxamide]
